# Laboratory results published in ChEMBL document CHEMBL1201862, “PubChem BioAssay data set” (2004).
#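 Step 1: Grow cells in 96-well plates. Step 2: Expose to compound for 48 hours at 5 concentrations. Step 3: Interpolate endpoints linearly; if unreached, use highest concentration. GI50 = concentration required for 50% inhibition of growth.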 Activity calls are given as the source filed them. Cut-off read from the data, not from the text of the source: active = GI50 up to about 1.1 µM and inactive = higher.
# Key:
# Assay in all cases: NCI-60 cell line screen, 48 h
# MCF7 = system: MCF7
# HOP-18 = system: HOP-18
# XF498 = system: XF498
# OVCAR-5 = system: OVCAR-5
# HCC 2998 = system: HCC 2998
# Malme-3M = system: Malme-3M
# HT-29 = system: HT-29
# U-251 = system: U-251
# DLD-1 = system: DLD-1
# KM-20L2 = system: KM-20L2
# OVCAR-3 = system: OVCAR-3
# NCI-H23 = system: NCI-H23
# NCI-H460 = system: NCI-H460
# SF-295 = system: SF-295
# UACC-257 = system: UACC-257
# SW-620 = system: SW-620
# K562 = system: K562
# SF-539 = system: SF-539
# HOP-92 = system: HOP-92
# M19-MEL = system: M19-MEL
# A549 = system: A549
# IGROV-1 = system: IGROV-1
# DMS-114 = system: DMS-114
# COLO 205 = system: COLO 205
# SK-MEL-2 = system: SK-MEL-2
# RPMI-8226 = system: RPMI-8226
# SK-OV-3 = system: SK-OV-3
# SK-MEL-5 = system: SK-MEL-5
# SNB-78 = system: SNB-78
# UO-31 = system: UO-31
# OVCAR-4 = system: OVCAR-4
# SN12C = system: SN12C
# SNB-75 = system: SNB-75
# HCT-116 = system: HCT-116
# MOLT-4 = system: MOLT-4
# HOP-62 = system: HOP-62
# HCT-15 = system: HCT-15
# SF-268 = system: SF-268
# A498 = system: A498
# LOX IMVI = system: LOX IMVI
# EKVX = system: EKVX
# NCI-H226 = system: NCI-H226
# SK-MEL-28 = system: SK-MEL-28
# OVCAR-8 = system: OVCAR-8
# UACC-62 = system: UACC-62
# RXF 393 = system: RXF 393
# SNB-19 = system: SNB-19
# HL-60 = system: HL-60
# NCI/ADR-RES = system: NCI/ADR-RES
# DMS-273 = system: DMS-273
# CCRF-CEM = system: CCRF-CEM
# KM12 = system: KM12
# LXFL 529 = system: LXFL 529
# CAKI-1 = system: CAKI-1
# TK-10 = system: TK-10
# ACHN = system: ACHN
# M14 = system: M14
# 786-0 = system: 786-0
# NCI-H522 = system: NCI-H522
# SR = system: SR
compound,measurement,setting,value
Cc1ccc2nc3c(C(=O)NCCN(C)C)cccc3cc2c1,GI50,MCF7,2.81 µM (inactive)
same,GI50,HOP-18,1.46 µM (inactive)
same,GI50,XF498,1.8 µM (inactive)
same,GI50,OVCAR-5,2.1 µM (inactive)
same,GI50,HCC 2998,3.8 µM (inactive)
same,GI50,Malme-3M,1.77 µM (inactive)
same,GI50,HT-29,1.14 µM (inactive)
same,GI50,U-251,3.26 µM (inactive)
same,GI50,DLD-1,2.01 µM (inactive)
same,GI50,KM-20L2,0.75 µM (active)
same,GI50,OVCAR-3,2 µM (inactive)
same,GI50,NCI-H23,1.84 µM (inactive)
same,GI50,NCI-H460,0.438 µM (active)
same,GI50,SF-295,1.95 µM (inactive)
same,GI50,UACC-257,2.09 µM (inactive)
same,GI50,SW-620,1.39 µM (inactive)
same,GI50,K562,2.36 µM (inactive)
same,GI50,SF-539,3.15 µM (inactive)
same,GI50,HOP-92,1.75 µM (inactive)
same,GI50,M19-MEL,1.95 µM (inactive)
same,GI50,A549,1.33 µM (inactive)
same,GI50,IGROV-1,2.23 µM (inactive)
same,GI50,DMS-114,1.53 µM (inactive)
same,GI50,COLO 205,1.02 µM (active)
same,GI50,SK-MEL-2,2.36 µM (inactive)
same,GI50,RPMI-8226,1.58 µM (inactive)
same,GI50,SK-OV-3,2.39 µM (inactive)
same,GI50,SK-MEL-5,1.76 µM (inactive)
same,GI50,SNB-78,4.24 µM (inactive)
same,GI50,UO-31,1.4 µM (inactive)
same,GI50,OVCAR-4,3.03 µM (inactive)
same,GI50,SN12C,1.76 µM (inactive)
same,GI50,SNB-75,2.99 µM (inactive)
same,GI50,HCT-116,0.807 µM (active)
same,GI50,MOLT-4,0.49 µM (active)
same,GI50,HOP-62,2.85 µM (inactive)
same,GI50,HCT-15,0.834 µM
same,GI50,SF-268,1.26 µM (inactive)
same,GI50,A498,1.56 µM (inactive)
same,GI50,LOX IMVI,1.71 µM (inactive)
same,GI50,EKVX,0.802 µM (active)
same,GI50,NCI-H226,1.45 µM (inactive)
same,GI50,SK-MEL-28,2.51 µM (inactive)
same,GI50,OVCAR-8,1.5 µM (inactive)
same,GI50,UACC-62,2.35 µM (inactive)
same,GI50,RXF 393,2.02 µM (inactive)
same,GI50,SNB-19,2.04 µM (inactive)
same,GI50,HL-60,1.23 µM (inactive)
same,GI50,NCI/ADR-RES,1.13 µM (inactive)
same,GI50,DMS-273,1.5 µM (inactive)
same,GI50,CCRF-CEM,1.55 µM (inactive)
same,GI50,KM12,2.9 µM (inactive)
O=C1CCC(=O)C12CCc1cccc(O)c12,GI50,HOP-18,> 100 µM (inactive)
same,GI50,XF498,> 100 µM (inactive)
same,GI50,HCC 2998,> 100 µM (inactive)
same,GI50,Malme-3M,> 100 µM (inactive)
same,GI50,HT-29,> 100 µM (inactive)
same,GI50,LXFL 529,> 100 µM (inactive)
same,GI50,U-251,> 100 µM (inactive)
same,GI50,DLD-1,> 100 µM (inactive)
same,GI50,KM-20L2,> 100 µM (inactive)
same,GI50,OVCAR-3,> 100 µM (inactive)
same,GI50,NCI-H23,> 100 µM (inactive)
same,GI50,CAKI-1,> 100 µM (inactive)
same,GI50,NCI-H460,> 100 µM (inactive)
same,GI50,SF-295,> 100 µM (inactive)
same,GI50,SW-620,> 100 µM (inactive)
same,GI50,TK-10,> 100 µM (inactive)
same,GI50,K562,> 100 µM (inactive)
same,GI50,HOP-92,> 100 µM (inactive)
same,GI50,M19-MEL,> 100 µM (inactive)
same,GI50,A549,> 100 µM (inactive)
same,GI50,IGROV-1,> 100 µM (inactive)
same,GI50,DMS-114,> 100 µM (inactive)
same,GI50,COLO 205,> 100 µM (inactive)
same,GI50,RPMI-8226,> 100 µM (inactive)
same,GI50,SK-OV-3,> 100 µM (inactive)
same,GI50,SNB-78,> 100 µM (inactive)
same,GI50,UO-31,> 100 µM (inactive)
same,GI50,OVCAR-4,> 100 µM (inactive)
same,GI50,SN12C,> 100 µM (inactive)
same,GI50,SNB-75,39 µM (inactive)
same,GI50,ACHN,> 100 µM (inactive)
same,GI50,HOP-62,> 100 µM (inactive)
same,GI50,HCT-15,> 100 µM
same,GI50,SF-268,> 100 µM (inactive)
same,GI50,LOX IMVI,> 100 µM (inactive)
same,GI50,EKVX,> 100 µM (inactive)
same,GI50,SK-MEL-28,> 100 µM (inactive)
same,GI50,OVCAR-8,> 100 µM (inactive)
same,GI50,UACC-62,> 100 µM (inactive)
same,GI50,M14,> 100 µM (inactive)
same,GI50,RXF 393,> 100 µM (inactive)
same,GI50,HL-60,> 100 µM (inactive)
same,GI50,786-0,> 100 µM (inactive)
same,GI50,DMS-273,> 100 µM (inactive)
CCCOP1(=O)C=CC(Cl)=C(C)C1 (stereo not given),GI50,HOP-18,50.4 µM (inactive)
same,GI50,XF498,23.6 µM (inactive)
same,GI50,OVCAR-5,20.7 µM (inactive)
same,GI50,HCC 2998,> 63.1 µM (inactive)
same,GI50,Malme-3M,21 µM (inactive)
same,GI50,HT-29,55.3 µM (inactive)
same,GI50,LXFL 529,23.7 µM (inactive)
same,GI50,U-251,40.1 µM (inactive)
same,GI50,DLD-1,20.6 µM (inactive)
same,GI50,KM-20L2,48.1 µM (inactive)
same,GI50,OVCAR-3,27.4 µM (inactive)
same,GI50,NCI-H23,30.8 µM (inactive)
same,GI50,CAKI-1,32.4 µM (inactive)
same,GI50,NCI-H460,50.7 µM (inactive)
same,GI50,SF-295,45.8 µM (inactive)
same,GI50,UACC-257,26.9 µM (inactive)
same,GI50,SW-620,19.3 µM (inactive)
same,GI50,TK-10,42.4 µM (inactive)
same,GI50,K562,12 µM (inactive)
same,GI50,SF-539,> 46 µM (inactive)
same,GI50,HOP-92,33.1 µM (inactive)
same,GI50,A549,> 54.3 µM (inactive)
same,GI50,IGROV-1,97.7 µM (inactive)
same,GI50,DMS-114,25.4 µM (inactive)
same,GI50,COLO 205,18.4 µM (inactive)
same,GI50,SK-MEL-2,23.9 µM (inactive)
same,GI50,RPMI-8226,22.3 µM (inactive)
same,GI50,SK-OV-3,> 100 µM (inactive)
same,GI50,SK-MEL-5,45.6 µM (inactive)
same,GI50,SNB-78,53.1 µM (inactive)
same,GI50,UO-31,81.7 µM (inactive)
same,GI50,OVCAR-4,36.6 µM (inactive)
same,GI50,SN12C,69.5 µM (inactive)
same,GI50,SNB-75,55.8 µM (inactive)
same,GI50,HCT-116,17.1 µM (inactive)
same,GI50,ACHN,24.9 µM (inactive)
same,GI50,MOLT-4,10.9 µM (inactive)
same,GI50,HOP-62,> 100 µM (inactive)
same,GI50,HCT-15,16.8 µM
same,GI50,SF-268,46.6 µM (inactive)
same,GI50,A498,82.8 µM (inactive)
same,GI50,LOX IMVI,32.3 µM (inactive)
same,GI50,EKVX,> 51.5 µM (inactive)
same,GI50,NCI-H522,15.9 µM (inactive)
same,GI50,SK-MEL-28,19.3 µM (inactive)
same,GI50,OVCAR-8,21.1 µM (inactive)
same,GI50,UACC-62,19.1 µM (inactive)
same,GI50,M14,33 µM (inactive)
same,GI50,RXF 393,16 µM (inactive)
same,GI50,SNB-19,> 70 µM (inactive)
same,GI50,HL-60,7.53 µM (inactive)
same,GI50,786-0,27.7 µM (inactive)
same,GI50,CCRF-CEM,11.9 µM (inactive)
same,GI50,KM12,20.8 µM (inactive)
O=C1CC2(C[C@@H]3CCCCCCCCC[C@@H](C3)C2)N1 (stereo not given in full),GI50,HOP-18,10.5 µM (inactive)
same,GI50,XF498,12.2 µM (inactive)
same,GI50,OVCAR-5,15.4 µM (inactive)
same,GI50,HCC 2998,12.2 µM (inactive)
same,GI50,Malme-3M,11.8 µM (inactive)
same,GI50,HT-29,12.8 µM (inactive)
same,GI50,LXFL 529,15.7 µM (inactive)
same,GI50,U-251,16.6 µM (inactive)
same,GI50,KM-20L2,15.6 µM (inactive)
same,GI50,NCI-H23,16.7 µM (inactive)
same,GI50,CAKI-1,12.6 µM (inactive)
same,GI50,NCI-H460,16.6 µM (inactive)
same,GI50,SF-295,17 µM (inactive)
same,GI50,UACC-257,12.2 µM (inactive)
same,GI50,SW-620,18.7 µM (inactive)
same,GI50,TK-10,17.1 µM (inactive)
same,GI50,K562,20.8 µM (inactive)
same,GI50,SF-539,15.8 µM (inactive)
same,GI50,HOP-92,10.8 µM (inactive)
same,GI50,SR,10.8 µM (inactive)
same,GI50,M19-MEL,15.2 µM (inactive)
same,GI50,A549,21.8 µM (inactive)
same,GI50,IGROV-1,12.9 µM (inactive)
same,GI50,DMS-114,16.7 µM (inactive)
same,GI50,COLO 205,16.7 µM (inactive)
same,GI50,SK-MEL-2,19.8 µM (inactive)
same,GI50,RPMI-8226,13.7 µM (inactive)
same,GI50,SK-OV-3,15.1 µM (inactive)
same,GI50,SK-MEL-5,16.4 µM (inactive)
same,GI50,SNB-78,23.4 µM (inactive)
same,GI50,UO-31,14.4 µM (inactive)
same,GI50,OVCAR-4,17.9 µM (inactive)
same,GI50,SN12C,16.8 µM (inactive)
same,GI50,SNB-75,6.71 µM (inactive)
same,GI50,HCT-116,19.5 µM (inactive)
same,GI50,ACHN,15.5 µM (inactive)
same,GI50,MOLT-4,12.4 µM (inactive)
same,GI50,HOP-62,17.1 µM (inactive)
same,GI50,HCT-15,17.7 µM
same,GI50,SF-268,20.4 µM (inactive)
same,GI50,A498,16.7 µM (inactive)
same,GI50,EKVX,14.4 µM (inactive)
same,GI50,NCI-H522,16.3 µM (inactive)
same,GI50,NCI-H226,14.3 µM (inactive)
same,GI50,SK-MEL-28,17.2 µM (inactive)
same,GI50,OVCAR-8,17.5 µM (inactive)
same,GI50,UACC-62,15.8 µM (inactive)
same,GI50,M14,14.8 µM (inactive)
same,GI50,RXF 393,16.2 µM (inactive)
same,GI50,SNB-19,20 µM (inactive)
same,GI50,HL-60,15.1 µM (inactive)
same,GI50,786-0,16.1 µM (inactive)
same,GI50,DMS-273,12.3 µM (inactive)
same,GI50,CCRF-CEM,17.5 µM (inactive)
same,GI50,KM12,17.8 µM (inactive)
